The values below come from patent publication US20130287807A1, “COMPOUNDS FOR TREATING SYMPTOMS ASSOCIATED WITH PARKINSON'S DISEASE” (priority 2008, published 2013).

In assay [1] the test system is monoclonal antibody MV-001. The assay is described as follows: In vitro binding assay (ELISA), BSA-coupled peptides, parental antibody MV-001. Also noted: species or system C57/B16 mice. Particulars: Table 1C; peptide-BSA on plate, compared to original epitope. The procedure:
(§1) Peptides derived from Phage Display as well as variants thereof were coupled to BSA and bound to ELISA plates (1 μM; as indicated in the respective figures) and subsequently incubated with the monoclonal antibody that was used for the screening procedure to analyse binding capacity of identified peptides.
Legend to Table 1C: the binding capacity is coded by the following binding code: 1:X describes the dilution factor of the parental AB
Background: An ELISA detects its analyte on a solid surface through an enzyme-linked reagent.

The test system of assay [2] is Aβ/truncated/modified forms. The assay can be described thus: In vivo characterisation of mimotopes: detection of Aβ/truncated/modified forms. Also noted: species or system C57/B16 mice; key: +: All peptides listed in Table 4 mount specific immune reactions against full length and/or truncated and modified forms of Aβ or fragments thereof. To be noted: Table 4, MV-001 derived mimotopes. As for the experimental part: Inhibiting as well as non-inhibiting peptides were coupled to KLH and injected into mice (wildtype C57/B16 mice; subcutaneous injection into the flank) together with an appropriate adjuvant (aluminium hydroxide). Animals were vaccinated 3-6 times in biweekly intervals and sera were taken biweekly as well. Titers to injected peptides, as well as to an irrelevant peptide were determined with every serum. Furthermore, titers against the recombinant human Aβ protein, and against original peptides were determined respectively. In general sera were analysed by reaction against peptides coupled to Bovine Serum Albumin (BSA) and recombinant full length proteins which were immobilised on ELISA plates. Titers were determined using anti mouse IgG specific antibodies. For detailed results see FIGS. 15, 16 and 17 respectively and FIGS. 23, 24 and 25 respectively.
(§2) Female C57/b16 mice, 5-6 mice per group, were subcutaneously immunized with 30 μg peptide coupled to KLH. Control groups were administered original epitope-KLH conjugates respectively. As adjuvant alum was used (always 1 mg per mouse). […] The in vitro ELISA assay to determine the antibody titer was performed with sera of single mice after each vaccination in a two week interval (see FIGS. 15 and 16 respectively). The wells of the ELISA plate were coated with mimotope-BSA conjugate and an irrelevant peptide-BSA conjugate (negative control). The positive control was performed by reaction of the parental antibody with the respective mimotope-BSA conjugate. The detection was performed with anti-mouse IgG. Additionally, recombinant proteins were immobilised on ELISA plates and sera reacted accordingly. FIGS. 15 to 17 show representative examples for assays used to characterise mimotopes in vivo.
as §2, with “FIGS. 25” for “FIGS. 15”, “and 26” for “and 16”, “respectively). Titers were calculated as OD max/2 in all figures shown.” for “respectively).”, “FIGS. 23, 24 and 25” for “FIGS. 15 to 17”

Assay [3] has as its system monoclonal antibody MV-001. The assay is described as follows: In vitro inhibition assay (ELISA), MV-001 binding to original epitope. Also noted: species or system C57/B16 mice. To be noted: Table 2C; OD at 10 ug peptide compared to original peptide. The procedure: (§3) Different amounts of peptides (concentrations ranging from 10 μg to 0.08 μg; serial dilutions; for MV-002: concentrations ranging from 5 μg to 0.03 μg; serial dilutions), derived from Phage Display were incubated with the monoclonal antibody that was used for the screening procedure. Peptides diminishing subsequent binding of the antibody to the original epitope coated on ELISA plates were considered as inhibiting in this assay.
Legend to Table 2C: the inhibition capacity is coded by the following code: Weak inhibition means more peptide is required to lower AB binding than with the original epitope; strong inhibition means similar peptide amounts are required for mimotope and original epitope for lowering AB binding. Mimotopes are compared to the original peptide as standard. OD at 10 ug peptide used in the assay is used to calculate the competition capacity compared to original peptide.

For assay [4], the system named is monoclonal antibody MV-002. The assay is described as follows: In vitro binding assay (ELISA), BSA-coupled peptides, parental antibody MV-002. Also noted: species or system C57/B16 mice. To be noted: Table 1 (MV-002); peptide-BSA on plate, compared to original epitope. The procedure:
as §1
Legend to Table 1: the binding capacity is coded by the following binding code: 1:X describes the dilution factor of the parental AB. Ac- . . . indicates acetylated AA.

The test system of assay [5] is monoclonal antibody MV-002. The assay is described as follows: In vitro inhibition assay (ELISA), MV-002 binding to original epitope. To be noted: Table 2 (MV-002); OD at 5 ug peptide compared to original peptide. Also noted: species or system C57/B16 mice. As for the experimental part: as §3
Legend to Table 2: the inhibition capacity is coded by the following code: Weak inhibition means more peptide is required to lower AB binding than with the original epitope; strong inhibition means similar peptide amounts are required for mimotope and original epitope for lowering AB binding. Mimotopes are compared to the original peptide as standard. OD at 5 ug peptide used in the assay is used to calculate the competition capacity compared to original peptide.

In assay [6] the target is monoclonal antibody MV-001. The assay can be described thus: ELISA on peptide-BSA; code 2 = medium binding, OD halfmax 1:4000-20000.
Assay [7] deals with monoclonal antibody MV-001. The assay is described as follows: inhibition ELISA, competitor coated original epitope p4371; code 1 = weaker than original epitope.

As for ELFKHHLC [p4714], the “Binding Capacity” value in assay [1] is 3 (strong binding :>20000). Also, the “Detection of Aβ/truncated/modified forms” value in assay [2] is listed as “+”.
As for TEFRHKAC [p4753], in assay [1], the “Binding Capacity” value is 3 (strong binding :>20000). The “Inhibition Capacity” value in assay [3] is given as 2 (strong inhibition (as original epitope; OD of 10 ug peptide below 2 times of original peptide)). Further, the “Detection of Aβ/truncated/modified forms” value in assay [2] is reported as “+”.
On to SEFKHGC [p4381], for which, in assay [1], the “Binding Capacity” value was 3 (strong binding :>20000). In addition, in assay [3], the “Inhibition Capacity” value is reported as 1 (Weaker than original epitope (OD of 10 ug peptide below 3 times of original peptide)). Further, the “Detection of Aβ/truncated/modified forms” value in assay [2] was “+”.
LMFRHNC [p4386]: in assay [1], the “Binding Capacity” value is recorded as 3 (strong binding :>20000). Also, the “Inhibition Capacity” value in assay [3] is recorded as 1 (Weaker than original epitope (OD of 10 ug peptide below 3 times of original peptide)). Besides, in assay [2], the “Detection of Aβ/truncated/modified forms” value was “+”.
With HQKMIFC [p4794], the “Binding Capacity” value in assay [4] is given as 2 (medium binding :40000-320000). For the same molecule, in assay [5], the “Inhibition Capacity” value is 1 (Weaker than original epitope (OD of peptide below 4, 6 times of original peptide)).
As for QSEFKHWC [p4738], the “Binding Capacity” value in assay [1] is on record as 3 (strong binding :>20000). The “Inhibition Capacity” value in assay [3] is given as 1 (Weaker than original epitope (OD of 10 ug peptide below 3 times of original peptide)). For the same molecule, the “Detection of Aβ/truncated/modified forms” value in assay [2] was “+”.
For TSVFRHC [p4383], the “Binding Capacity” value in assay [1] was 3 (strong binding :>20000). For the same molecule, the “Inhibition Capacity” value in assay [3] is 1 (Weaker than original epitope (OD of 10 ug peptide below 3 times of original peptide)). Moreover, in assay [2], the “Detection of Aβ/truncated/modified forms” value was “+”.
The like results for SQFRHYC [p4385] were, in that order, 2 (medium binding :4000-20000), 1 (Weaker than original epitope (OD of 10 ug peptide below 3 times of original peptide)) and “+”.
In the case of YEFRHAQC [p4748], in assay [1], the “Binding Capacity” value was 3 (strong binding :>20000). Besides, the “Detection of Aβ/truncated/modified forms” value in assay [2] is “+”.
As to GEILFGMC [p4689], the “Binding Capacity” value in assay [4] is given as 3 (strong binding :>320000). The “Inhibition Capacity” value in assay [5] was 1 (Weaker than original epitope (OD of peptide below 4, 6 times of original peptide)).
With SPNQFRHC [p4707], the “Binding Capacity” value in assay [1] is 3 (strong binding :>20000). In addition, the “Inhibition Capacity” value in assay [3] is recorded as 1 (Weaker than original epitope (OD of 10 ug peptide below 3 times of original peptide)). For the same molecule, in assay [2], the “Detection of Aβ/truncated/modified forms” value is “+”.
The like results for ILFRHGC [p4390] were, in that order, 3 (strong binding :>20000), 1 (Weaker than original epitope (OD of 10 ug peptide below 3 times of original peptide)) and “+”.
The corresponding values for DEHPFRHC [p4730] are 3 (strong binding :>20000), 1 (Weaker than original epitope (OD of 10 ug peptide below 3 times of original peptide)) and “+”.
In the case of ADHDFRHC [p4740], the “Binding Capacity” value in assay [1] is reported as 3 (strong binding :>20000). The “Inhibition Capacity” value in assay [3] is 1 (Weaker than original epitope (OD of 10 ug peptide below 3 times of original peptide)). The “Detection of Aβ/truncated/modified forms” value in assay [2] is on record as “+”.
Take NDAKIVFC [p4667]: the “Binding Capacity” value in assay [4] was 3 (strong binding :>320000). Moreover, the “Inhibition Capacity” value in assay [5] was 1 (Weaker than original epitope (OD of peptide below 4, 6 times of original peptide)).
For SHQRLWFC [p4674], the “Binding Capacity” value in assay [4] was 3 (strong binding :>320000). The “Inhibition Capacity” value in assay [5] is given as 1 (Weaker than original epitope (OD of peptide below 4, 6 times of original peptide)).
Turning to THTDFRHC [p4725], the “Binding Capacity” value in assay [1] is given as 3 (strong binding :>20000). Also, in assay [3], the “Inhibition Capacity” value is recorded as 1 (Weaker than original epitope (OD of 10 ug peptide below 3 times of original peptide)). Besides, in assay [2], the “Detection of Aβ/truncated/modified forms” value is recorded as “+”.
With TLHEFRHC [p4715], in assay [1], the “Binding Capacity” value is listed as 3 (strong binding :>20000). Moreover, the “Inhibition Capacity” value in assay [3] is recorded as 2 (strong inhibition (as original epitope; OD of 10 ug peptide below 2 times of original peptide)). The “Detection of Aβ/truncated/modified forms” value in assay [2] is on record as “+”.

B1: p4384 (peptide)
peptide: TPFRHTC
In the case of B1, the OD halfmax 1:X (dilution factor of the parental antibody at half-maximal OD) (dilutionfactor(1:x)) in assay [6] was in the range of 4000 to 20000. Moreover, the OD at 10 ug peptide relative to OD of original peptide (inhibition ELISA) in assay [7] was 2 to 3 fold.

B2: p4387 (peptide)
peptide: SAFRHHC
For B2, in assay [6], the OD halfmax 1:X (dilution factor of the parental antibody at half-maximal OD) (dilutionfactor(1:x)) lay within 4000 to 20000. The same molecule came in with an OD at 10 ug peptide relative to OD of original peptide (inhibition ELISA) in assay [7] of 2 to 3 fold.

B3: p4393 (peptide)
peptide: EEFKYSC
Turning to B3, in assay [6], the OD halfmax 1:X (dilution factor of the parental antibody at half-maximal OD) (dilutionfactor(1:x)) fell in the range of 4000 to 20000. Moreover, the OD at 10 ug peptide relative to OD of original peptide (inhibition ELISA) in assay [7] was in the range of 2 to 3 fold.

B4: p4388 (peptide)
peptide: LPFRHGC
Take B4: the OD halfmax 1:X (dilution factor of the parental antibody at half-maximal OD) (dilutionfactor(1:x)) in assay [6] lay within 4000 to 20000. In assay [7], this molecule displayed an OD at 10 ug peptide relative to OD of original peptide (inhibition ELISA) of 2 to 3 fold.

B5: p4389 (peptide)
peptide: SHFRHGC
Regarding B5, in assay [6], the OD halfmax 1:X (dilution factor of the parental antibody at half-maximal OD) (dilutionfactor(1:x)) fell in the range of 4000 to 20000. Besides, in assay [7], the OD at 10 ug peptide relative to OD of original peptide (inhibition ELISA) was 2 to 3 fold.

B6: p4391 (peptide)
peptide: QFKHDLC
In the case of B6, the OD halfmax 1:X (dilution factor of the parental antibody at half-maximal OD) (dilutionfactor(1:x)) in assay [6] lay within 4000 to 20000. This molecule showed an OD at 10 ug peptide relative to OD of original peptide (inhibition ELISA) in assay [7] of 2 to 3 fold.

B7: p4382 (peptide)
peptide: TSFRHGC
Take B7: in assay [6], the OD halfmax 1:X (dilution factor of the parental antibody at half-maximal OD) (dilutionfactor(1:x)) was 4000 to 20000. The OD at 10 ug peptide relative to OD of original peptide (inhibition ELISA) in assay [7] lay within 2 to 3 fold.

B8: p4380 (peptide)
peptide: QDFRHYC
On to B8, for which, in assay [6], the OD halfmax 1:X (dilution factor of the parental antibody at half-maximal OD) (dilutionfactor(1:x)) is 4000 to 20000. The molecule also gave an OD at 10 ug peptide relative to OD of original peptide (inhibition ELISA) in assay [7] of 2 to 3 fold.

B9: p4385 (peptide)
peptide: SQFRHYC
Consider B9, for which the OD halfmax 1:X (dilution factor of the parental antibody at half-maximal OD) (dilutionfactor(1:x)) in assay [6] fell in the range of 4000 to 20000. The molecule also had an OD at 10 ug peptide relative to OD of original peptide (inhibition ELISA) in assay [7] of 2 to 3 fold.
